Results on two compounds are retold here after patent US10052320B2, “Substituted quinoxalines as FGFR kinase inhibitors” (ASTEX THERAPEUTICS LIMITED, priority 2011, dated 2018).

Where only a bound is given, the exact number is not on record here.

Data set [1] concerns the target Ba/F3-FGFR1-transfected cells (Homo sapiens, UniProt P11362). Kind of data set: Ba/F3-FGFR1 (minus IL3) cellular proliferation assay, Alamar Blue. The data set is classed as cell-based. Particulars: minus IL3, 384 well. The method in brief: (§1)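 Compound dilutions in DMSO are combined with transfected cells in phenol red-free RPMI-1640 containing 10% FBS and L-glutamine. Plates incubate 24 h at 37 °C and 5% CO2. Viability is then scored by 4 h Alamar Blue conversion, read as fluorescence (540 nm excitation, 590 nm emission).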

Data set [2] deals with Ba/F3-KDR-transfected cells (Homo sapiens, UniProt P35968). Kind of data set: Ba/F3-KDR (minus IL3) cellular proliferation assay, Alamar Blue. It is filed as cell-based. Particulars: minus IL3. The method in brief: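 Compound in DMSO was combined with Ba/F3-KDR-transfected cells in RPMI-1640, 10% FBS, 2 mM L-glutamine. After 24 h incubation at 37 °C, Alamar Blue was added for a further 4 h, then relative fluorescence units were measured.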

Data set [3] has as its target FGFR2 (h) (Homo sapiens, UniProt P21802). Briefly: FGFR2 (enzymatic assay), TR-FRET. As to conditions: read-out: FGFR 2 pIC50 (converted). It is filed as biochemical. The protocol: In a final reaction volume of 30 μL, FGFR2 (h) (150 ng/ml) was incubated with 50 mM HEPES pH 7.5, 6 mM MnCl2, 1 mM DTT, 0.1 mM Na3VO4, 0.01% Triton-X-100, 500 nM Btn-Flt3 and 0.4 μM ATP in the presence of compound (1% DMSO final). […] Time-Resolved Fluorescence Resonance Energy Transfer (TR-FRET) signal (ex340 nm. Em 620 nm, em 655 nm) was measured afterwards and results are expressed in (Relative Fluorescence Units).
On the technique in general: In TR-FRET formats the signal depends on donor and acceptor labels being close together.

For data set [4], the system named is Ba/F3-FGFR1-transfected cells in the presence of 10 ng/ml murine IL3. Kind of data set: Ba/F3-FGFR1 (plus IL3) cellular proliferation counterscreen, Alamar Blue. It is filed as cell-based. Particulars: Mus musculus; plus IL3, 384 well; read-out: BAF3-FGFR 1 (PLUS IL3) 384 well pIC50 (converted). In short, it runs like this:
as §1
(In general: The purpose of a counterscreen is to sort out artefacts and off-target activity.)

The target in data set [5] is FGFR4 (h) (Homo sapiens, UniProt P22455). Kind of data set: FGFR4 (enzymatic assay), TR-FRET. The data set is classed as biochemical. As to conditions: read-out: FGFR 4 pIC50 (converted). How it is done: In a final reaction volume of 30 μL, FGFR4 (h) (60 ng/ml) was incubated with 50 mM HEPES pH 7.5, 6 mM MnCl2, 1 mM DTT, 0.1 mM Na3VO4, 0.01% Triton-X-100, 500 nM Btn-Flt3 and 5 μM ATP in the presence of compound (1% DMSO final). […] Time-Resolved Fluorescence Resonance Energy Transfer (TR-FRET) signal (ex340 nm. Em 620 nm, em 655 nm) was measured afterwards and results are expressed in RFU (Relative Fluorescence Units).

The target in data set [6] is FGFR3 (h) (Homo sapiens, UniProt P22607). Kind of data set: FGFR3 (enzymatic assay), TR-FRET. The data set is classed as biochemical. Particulars: read-out: FGFR 3 pIC50 (converted). How it is done:
In a final reaction volume of 30 μL, FGFR3 (h) (40 ng/ml) was incubated with 50 mM HEPES pH 7.5, 6 mM MnCl2, 1 mM DTT, 0.1 mM Na3VO4, 0.01% Triton-X-100, 500 nM Btn-Flt3 and 25 μM ATP in the presence of compound (1% DMSO final). […] Time-Resolved Fluorescence Resonance Energy Transfer (TR-FRET) signal (ex340 nm. Em 620 nm, em 655 nm) was measured afterwards and results are expressed in RFU (Relative Fluorescence Units).

Sequence of Ba/F3-FGFR1-transfected cells (P11362 whole entry, change not shown): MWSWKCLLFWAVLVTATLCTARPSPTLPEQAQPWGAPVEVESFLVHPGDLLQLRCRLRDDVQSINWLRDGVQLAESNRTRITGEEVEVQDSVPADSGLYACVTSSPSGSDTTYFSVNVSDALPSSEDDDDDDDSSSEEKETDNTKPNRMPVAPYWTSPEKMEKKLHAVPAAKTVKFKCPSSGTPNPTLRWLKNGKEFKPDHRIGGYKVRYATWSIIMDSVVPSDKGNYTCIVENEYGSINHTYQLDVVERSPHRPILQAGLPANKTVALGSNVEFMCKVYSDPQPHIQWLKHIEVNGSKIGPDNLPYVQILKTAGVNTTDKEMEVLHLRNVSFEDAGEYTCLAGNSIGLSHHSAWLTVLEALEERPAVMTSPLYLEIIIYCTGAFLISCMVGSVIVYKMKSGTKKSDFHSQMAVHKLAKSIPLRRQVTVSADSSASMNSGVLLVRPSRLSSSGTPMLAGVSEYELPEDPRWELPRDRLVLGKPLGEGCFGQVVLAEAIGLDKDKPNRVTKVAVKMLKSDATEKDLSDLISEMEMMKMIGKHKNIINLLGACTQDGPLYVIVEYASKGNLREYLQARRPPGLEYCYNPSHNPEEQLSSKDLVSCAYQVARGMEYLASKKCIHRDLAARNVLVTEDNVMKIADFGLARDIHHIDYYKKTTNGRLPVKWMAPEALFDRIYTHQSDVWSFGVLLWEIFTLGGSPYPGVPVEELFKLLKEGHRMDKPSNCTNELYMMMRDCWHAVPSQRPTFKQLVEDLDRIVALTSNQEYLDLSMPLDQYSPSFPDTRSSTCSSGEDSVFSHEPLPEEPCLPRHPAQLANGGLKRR
Sequence of FGFR4 (h) (P22455 22-802): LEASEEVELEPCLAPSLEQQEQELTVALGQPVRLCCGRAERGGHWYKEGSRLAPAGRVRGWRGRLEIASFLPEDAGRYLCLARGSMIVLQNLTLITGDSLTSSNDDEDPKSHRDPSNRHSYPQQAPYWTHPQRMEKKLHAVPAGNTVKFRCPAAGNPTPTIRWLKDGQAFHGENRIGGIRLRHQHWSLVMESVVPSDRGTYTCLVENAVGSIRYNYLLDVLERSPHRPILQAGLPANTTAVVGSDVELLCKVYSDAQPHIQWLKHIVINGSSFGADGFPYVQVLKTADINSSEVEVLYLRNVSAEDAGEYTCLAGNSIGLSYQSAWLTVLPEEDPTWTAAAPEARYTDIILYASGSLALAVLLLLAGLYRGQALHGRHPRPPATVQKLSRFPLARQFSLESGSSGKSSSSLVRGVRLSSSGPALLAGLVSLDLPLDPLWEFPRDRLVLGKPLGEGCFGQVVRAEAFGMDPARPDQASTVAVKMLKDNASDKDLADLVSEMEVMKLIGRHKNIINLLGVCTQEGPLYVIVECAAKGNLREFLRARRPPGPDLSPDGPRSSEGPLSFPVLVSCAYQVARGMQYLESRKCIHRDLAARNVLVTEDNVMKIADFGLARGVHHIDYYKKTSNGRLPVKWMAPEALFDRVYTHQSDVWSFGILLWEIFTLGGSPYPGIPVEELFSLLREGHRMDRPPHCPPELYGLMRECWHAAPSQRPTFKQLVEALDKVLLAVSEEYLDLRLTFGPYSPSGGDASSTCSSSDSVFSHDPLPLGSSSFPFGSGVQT
Sequence of FGFR2 (h) (P21802 22-821): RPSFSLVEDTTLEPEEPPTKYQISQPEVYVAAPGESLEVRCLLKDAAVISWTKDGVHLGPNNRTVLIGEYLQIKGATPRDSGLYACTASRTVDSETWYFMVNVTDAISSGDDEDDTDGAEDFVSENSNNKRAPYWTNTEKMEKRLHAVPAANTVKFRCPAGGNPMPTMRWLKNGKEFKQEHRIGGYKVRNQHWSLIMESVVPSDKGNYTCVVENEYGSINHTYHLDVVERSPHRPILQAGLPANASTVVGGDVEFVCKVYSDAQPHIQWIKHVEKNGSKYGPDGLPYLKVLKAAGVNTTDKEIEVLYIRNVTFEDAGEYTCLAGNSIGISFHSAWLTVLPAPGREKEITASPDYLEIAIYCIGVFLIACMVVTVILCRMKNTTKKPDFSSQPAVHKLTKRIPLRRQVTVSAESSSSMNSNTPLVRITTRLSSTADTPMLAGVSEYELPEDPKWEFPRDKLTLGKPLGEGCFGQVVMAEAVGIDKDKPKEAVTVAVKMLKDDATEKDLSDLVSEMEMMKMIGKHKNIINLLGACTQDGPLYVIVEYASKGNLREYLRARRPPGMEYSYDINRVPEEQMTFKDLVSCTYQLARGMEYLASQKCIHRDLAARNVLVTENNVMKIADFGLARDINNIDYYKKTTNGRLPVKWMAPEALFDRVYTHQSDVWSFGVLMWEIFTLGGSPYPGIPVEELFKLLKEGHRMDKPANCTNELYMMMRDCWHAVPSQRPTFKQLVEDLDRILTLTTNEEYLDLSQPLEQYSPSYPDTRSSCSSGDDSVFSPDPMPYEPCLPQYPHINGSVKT
Sequence of FGFR3 (h) (P22607 23-806): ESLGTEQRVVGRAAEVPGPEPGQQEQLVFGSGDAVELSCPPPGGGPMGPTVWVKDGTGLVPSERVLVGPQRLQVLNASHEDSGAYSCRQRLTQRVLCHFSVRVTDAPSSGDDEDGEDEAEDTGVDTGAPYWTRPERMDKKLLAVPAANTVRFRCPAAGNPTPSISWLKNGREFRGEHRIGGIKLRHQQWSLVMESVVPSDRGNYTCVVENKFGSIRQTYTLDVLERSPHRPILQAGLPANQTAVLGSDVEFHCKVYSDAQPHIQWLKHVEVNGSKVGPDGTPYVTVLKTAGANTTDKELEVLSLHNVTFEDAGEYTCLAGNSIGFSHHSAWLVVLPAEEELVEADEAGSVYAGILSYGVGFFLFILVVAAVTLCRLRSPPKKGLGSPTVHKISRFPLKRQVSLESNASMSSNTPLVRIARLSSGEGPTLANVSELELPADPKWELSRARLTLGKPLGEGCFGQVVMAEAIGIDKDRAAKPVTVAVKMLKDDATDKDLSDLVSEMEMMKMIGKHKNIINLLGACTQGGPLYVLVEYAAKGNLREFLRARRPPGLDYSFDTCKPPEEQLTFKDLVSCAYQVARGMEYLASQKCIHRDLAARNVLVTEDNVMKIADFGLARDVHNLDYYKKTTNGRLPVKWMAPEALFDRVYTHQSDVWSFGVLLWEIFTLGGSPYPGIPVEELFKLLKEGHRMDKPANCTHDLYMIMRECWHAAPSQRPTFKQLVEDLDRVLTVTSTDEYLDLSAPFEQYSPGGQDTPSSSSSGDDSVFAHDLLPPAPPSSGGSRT
Sequence of Ba/F3-KDR-transfected cells (P35968 whole entry, change not shown): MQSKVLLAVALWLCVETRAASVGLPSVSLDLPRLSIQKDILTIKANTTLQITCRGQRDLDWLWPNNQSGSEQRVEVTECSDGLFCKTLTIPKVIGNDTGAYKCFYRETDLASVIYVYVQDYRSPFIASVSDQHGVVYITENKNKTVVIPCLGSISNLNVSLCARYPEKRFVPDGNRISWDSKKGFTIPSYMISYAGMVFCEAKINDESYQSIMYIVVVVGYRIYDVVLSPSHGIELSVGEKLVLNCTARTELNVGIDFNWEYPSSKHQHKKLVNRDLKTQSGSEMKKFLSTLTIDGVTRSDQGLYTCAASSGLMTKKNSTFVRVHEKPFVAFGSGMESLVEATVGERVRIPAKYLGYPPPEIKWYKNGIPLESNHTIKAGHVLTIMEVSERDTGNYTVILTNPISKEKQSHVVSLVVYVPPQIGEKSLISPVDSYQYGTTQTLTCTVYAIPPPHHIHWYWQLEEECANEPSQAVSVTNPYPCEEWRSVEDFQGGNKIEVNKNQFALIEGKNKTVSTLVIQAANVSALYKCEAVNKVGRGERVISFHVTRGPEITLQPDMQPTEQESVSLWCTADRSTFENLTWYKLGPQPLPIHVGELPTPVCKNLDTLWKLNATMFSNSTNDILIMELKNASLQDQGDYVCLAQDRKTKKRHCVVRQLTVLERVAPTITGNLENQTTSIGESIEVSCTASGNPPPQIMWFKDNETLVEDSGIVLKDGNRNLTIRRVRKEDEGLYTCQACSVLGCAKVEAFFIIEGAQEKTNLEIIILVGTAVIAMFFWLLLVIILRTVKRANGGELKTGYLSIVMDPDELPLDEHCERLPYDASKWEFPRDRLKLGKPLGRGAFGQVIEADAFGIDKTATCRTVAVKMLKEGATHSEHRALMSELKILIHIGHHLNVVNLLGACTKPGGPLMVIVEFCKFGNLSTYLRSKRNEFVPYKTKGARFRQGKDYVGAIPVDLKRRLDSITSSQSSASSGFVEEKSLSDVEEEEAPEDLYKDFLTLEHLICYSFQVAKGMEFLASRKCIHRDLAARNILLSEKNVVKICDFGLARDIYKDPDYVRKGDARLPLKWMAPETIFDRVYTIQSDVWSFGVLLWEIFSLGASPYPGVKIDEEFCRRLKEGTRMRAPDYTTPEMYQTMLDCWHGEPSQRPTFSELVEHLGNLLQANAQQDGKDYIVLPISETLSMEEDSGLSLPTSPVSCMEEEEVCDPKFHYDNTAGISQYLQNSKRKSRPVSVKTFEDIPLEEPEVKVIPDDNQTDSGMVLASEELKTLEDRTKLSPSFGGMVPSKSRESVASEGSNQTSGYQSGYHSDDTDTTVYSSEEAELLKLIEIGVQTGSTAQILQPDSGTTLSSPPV

Turning to `COc1cc(OC)cc(N(CCO)c2ccc3ncc(C(=O)Nc4cnn(C)c4)nc3c2)c1` [Compound 184], the melting point (in general, the temperature of the solid-liquid transition) is 227 °C. The “BAF3-FGFR 1 (MIN IL3) 384 well pIC50” value in data set [1] is on record as 5.28. For the same compound, in data set [2], the “BAF3-KDR (MIN IL3) 384 well pIC50” value is on record as less than 5. The IC50 in data set [3] was 155 nM. Further, in data set [4], the IC50 is greater than 10000 nM. Moreover, the IC50 in data set [5] is 309 nM. Also, the IC50 in data set [6] is 110 nM.

The compound `COc1cc(OC)cc(N(CCNC(C)C)c2ccc3ncc(-c4ccnn4C4CCCCO4)nc3c2)c1` (centres unmarked) [Compound 188] displayed a melting point of 122 °C. The “BAF3-FGFR 1 (MIN IL3) 384 well pIC50” value in data set [1] amounted to 6.46. For the same compound, the “BAF3-KDR (MIN IL3) 384 well pIC50” value in data set [2] was found to be 5.14. Further, the IC50 in data set [3] is 7.41 nM. Also, the IC50 in data set [4] is greater than 10000 nM. Further, the IC50 in data set [5] is 70.8 nM. Besides, the IC50 in data set [6] is 17.8 nM.
